Columns and labels:
Format in all cases: in vivo
[1] = tested on: pigweed (Amaranthus retroflexus); test: Test C greenhouse herbicide test, pre- and postemergence
Description: (§1) Seeds of plant species selected from blackgrass (Alopecurus myosuroides), ryegrass, Italian (Italian ryegrass, Lolium multiflorum), wheat (winter wheat, Triticum aestivum), galium (catchweed bedstraw, Galium aparine), corn (Zea mays), large crabgrass, large (large crabgrass, Digitaria sanguinalis), foxtail, giant (giant foxtail, Setaria faberii), johnsongrass (Sorghum halepense), lambsquarters (Chenopodium album), morningglory (Ipomoea coccinea), nutsedge, yellow (yellow nutsedge, Cyperus esculentus), pigweed (Amaranthus retroflexus), ragweed (common ragweed, Ambrosia elatior), soybean (Glycine max), barnyardgrass (Echinochloa crus-galli), oilseed rape (Brassica napus), waterhemp (common waterhemp, Amaranthus rudis), and velvetleaf (Abutilon theophrasti) were planted into a blend of loam soil and sand and treated preemergence with test chemicals formulated in a non-phytotoxic solvent mixture which included a surfactant.
(§2) At the same time, plants selected from these crop and weed species and also chickweed (common chickweed, Stellaria media), kochia (Kochia scoparia), and oat, wild (wild oat, Avena fatua), were planted in pots containing Redi-Earth® planting medium (Scotts Company, 14111 Scottslawn Road, Marysville, Ohio 43041) comprising spaghnum peat moss, vermiculite, wetting agent and starter nutrients and treated with postemergence applications of test chemicals formulated in the same manner. Plants ranged in height from 2 to 18 cm (1- to 4-leaf stage) for postemergence treatments. Treated plants and controls were maintained in a greenhouse for 13 to 15 d, after which time all species were compared to controls and visually evaluated. Plant response ratings, summarized in Table C, are based on a scale of 0 to 100 where 0 is no effect and 100 is complete control. A dash (-) response means no test result.

[2] = tested on: nutsedge, yellow (yellow nutsedge, Cyperus esculentus); test: as above
Description: as §1, §2

[3] = tested on: galium (catchweed bedstraw, Galium aparine); test: as above
Description: as §1, §2

[4] = tested on: velvetleaf (Abutilon theophrasti); test: as above
Description: as §1, §2

[5] = tested on: blackgrass (Alopecurus myosuroides); test: as above
Description: as §1, §2

[6] = tested on: ryegrass, Italian (Italian ryegrass, Lolium multiflorum); test: as above
Description: as §1, §2

[7] = tested on: barnyardgrass (Echinochloa crus-galli); test: as above
Description: as §1, §2

soybean (Glycine max) = test: as above
Description: as §1, §2

[8] = tested on: ragweed (common ragweed, Ambrosia elatior); test: as above
Description: as §1, §2

[9] = tested on: chickweed (common chickweed, Stellaria media); test: Test C greenhouse herbicide test, postemergence
Procedure, shortened: (§3)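 Plants grown in potting mix of peat moss, vermiculite, wetting agent and starter nutrients were sprayed postemergence at 2 to 18 cm height (1- to 4-leaf stage). After 13 to 15 d in the greenhouse, injury was visually rated against untreated controls on a 0–100 scale (0 no effect, 100 complete control).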

kochia (Kochia scoparia) = test: Test C greenhouse herbicide test, postemergence
Procedure, shortened: as §3

[10] = tested on: oat, wild (wild oat, Avena fatua); test: Test C greenhouse herbicide test, postemergence
Procedure, shortened: as §3

[11] = tested on: galium (catchweed bedstraw, Galium aparine); test: Test A greenhouse herbicide test, postemergence
Procedure, shortened: (§4)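 Seedlings in a loam soil and sand mix received formulated compound postemergence at the one- to two-leaf stage. Greenhouse holding lasts approximately 10 d, then injury is scored visually relative to untreated plants, 0 meaning no effect and 100 complete control.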

[12] = tested on: blackgrass (Alopecurus myosuroides); test: Test A greenhouse herbicide test, postemergence
Procedure, shortened: as §4

[13] = Postemergence, 31 g ai/ha, 0 to 100 scale (0 no effect, 100 complete control)
[14] = Postemergence, 125 g ai/ha, scale 0 to 100, 0 is no effect, 100 is complete control
[15] = Postemergence, 250 g ai/ha, scale 0 to 100, 0 no effect, 100 complete control, 13 to 15 d
[16] = Preemergence, 31 g ai/ha, scale 0 to 100, 0 is no effect, 100 is complete control
[17] = Preemergence, 62 g ai/ha, scale 0 to 100, 0 is no effect, 100 is complete control
[18] = Preemergence, 125 g ai/ha, scale 0 to 100, 0 is no effect, 100 is complete control
[19] = Preemergence, 250 g ai/ha, scale 0 to 100, 0 no effect, 100 complete control
[20] = postemergence, 62 g ai/ha, scale 0 to 100, 0 no effect, 100 complete control
[21] = 125 g ai/ha, visual rating after approx. 10 d, 0 to 100 scale (0 no effect, 100 complete control)
[22] = 500 g ai/ha, 0 to 100 scale, 0 is no effect, 100 is complete control

**Q.** Which “Pigweed plant response rating” value [1, 13] does the source give for `Cc1ccc2ccccc2c1-c1c(O)c(Br)nn(C)c1=O` [Compound 23] here?
**A.** The value was 90.

**Q.** And the “Plant response rating, Pigweed” value [1, 14]?
**A.** Its value is 98.

**Q.** And the “Plant response rating, Pigweed” value [1, 15]?
**A.** Its value is 98.

**Q.** And the “Plant response rating, Pigweed” value [1, 16]?
**A.** Its value is 100.

**Q.** And the “Plant response rating, Pigweed” value [1, 17]?
**A.** The value was 100.

**Q.** And the “Plant response rating, Pigweed” value [1, 18]?
**A.** The value was 100.

**Q.** And the “Pigweed plant response rating” value [1, 19]?
**A.** The value was 100.

**Q.** And the “Pigweed plant response rating” value [1, 20]?
**A.** The value was 98.

**Q.** What about the “Nutsedge, Yellow plant response rating” value [2, 13] of the same compound?
**A.** Its value is 60.

**Q.** What about the “Plant response rating, Nutsedge, Yellow” value [2, 14] of the same compound?
**A.** Its value is 85.

**Q.** And the “Plant response rating, Nutsedge, Yellow” value [2, 15]?
**A.** The value was 85.

**Q.** What about the “Plant response rating, Nutsedge, Yellow” value [2, 16] of the same compound?
**A.** Its value is 40.

**Q.** What about the “Plant response rating, Nutsedge, Yellow” value [2, 17] of the same compound?
**A.** The value was 90.

**Q.** And the “Plant response rating, Nutsedge, Yellow” value [2, 18]?
**A.** The value was 85.

**Q.** And the “Nutsedge, Yellow plant response rating” value [2, 19]?
**A.** Its value is 90.

**Q.** What about the “Nutsedge, Yellow plant response rating” value [2, 20] of the same compound?
**A.** The value was 70.

**Q.** What about the “Galium plant response rating” value [3, 13] of the same compound?
**A.** The value was 95.

**Q.** What about the “Plant response rating, Galium” value [3, 14] of the same compound?
**A.** The value was 100.

**Q.** And the “Plant response rating, Galium” value [3, 15]?
**A.** The value was 100.

**Q.** And the “Plant response rating, Galium” value [3, 16]?
**A.** Its value is 98.

**Q.** And the “Plant response rating, Galium” value [3, 17]?
**A.** Its value is 100.

**Q.** And the “Plant response rating, Galium” value [3, 18]?
**A.** The value was 100.

**Q.** And the “Galium plant response rating” value [3, 19]?
**A.** The value was 100.

**Q.** And the “Galium plant response rating” value [3, 20]?
**A.** The value was 100.

**Q.** And the “Velvetleaf plant response rating” value [4, 13]?
**A.** The value was 70.

**Q.** What about the “Plant response rating, Velvetleaf” value [4, 14] of the same compound?
**A.** Its value is 85.

**Q.** And the “Plant response rating, Velvetleaf” value [4, 15]?
**A.** The value was 90.

**Q.** And the “Plant response rating, Velvetleaf” value [4, 17]?
**A.** Its value is 90.

**Q.** And the “Plant response rating, Velvetleaf” value [4, 18]?
**A.** The value was 100.

**Q.** What about the “Velvetleaf plant response rating” value [4, 19] of the same compound?
**A.** The value was 100.

**Q.** What about the “Velvetleaf plant response rating” value [4, 20] of the same compound?
**A.** Its value is 85.

**Q.** What about the “Blackgrass plant response rating” value [5, 13] of the same compound?
**A.** Its value is 50.

**Q.** What about the “Plant response rating, Blackgrass” value [5, 14] of the same compound?
**A.** Its value is 70.

**Q.** And the “Plant response rating, Blackgrass” value [5, 15]?
**A.** Its value is 85.

**Q.** What about the “Plant response rating, Blackgrass” value [5, 16] of the same compound?
**A.** Its value is 45.

**Q.** What about the “Plant response rating, Blackgrass” value [5, 17] of the same compound?
**A.** Its value is 85.

**Q.** What about the “Plant response rating, Blackgrass” value [5, 18] of the same compound?
**A.** The value was 90.

**Q.** What about the “Blackgrass plant response rating” value [5, 19] of the same compound?
**A.** Its value is 90.

**Q.** And the “Blackgrass plant response rating” value [5, 20]?
**A.** Its value is 60.

**Q.** And the “Ryegrass, Italian plant response rating” value [6, 13]?
**A.** The value was 85.

**Q.** What about the “Plant response rating, Ryegrass, Italian” value [6, 14] of the same compound?
**A.** The value was 95.

**Q.** What about the “Plant response rating, Ryegrass, Italian” value [6, 15] of the same compound?
**A.** The value was 95.

**Q.** What about the “Plant response rating, Ryegrass, Italian” value [6, 16] of the same compound?
**A.** Its value is 85.

**Q.** And the “Plant response rating, Ryegrass, Italian” value [6, 17]?
**A.** Its value is 90.

**Q.** What about the “Plant response rating, Ryegrass, Italian” value [6, 18] of the same compound?
**A.** The value was 95.

**Q.** And the “Ryegrass, Italian plant response rating” value [6, 19]?
**A.** Its value is 95.

**Q.** And the “Ryegrass, Italian plant response rating” value [6, 20]?
**A.** The value was 90.

**Q.** What about the “Barnyardgrass plant response rating” value [7, 13] of the same compound?
**A.** The value was 40.

**Q.** What about the “Plant response rating, Barnyardgrass” value [7, 14] of the same compound?
**A.** The value was 75.

**Q.** What about the “Plant response rating, Barnyardgrass” value [7, 15] of the same compound?
**A.** The value was 85.

**Q.** And the “Plant response rating, Barnyardgrass” value [7, 16]?
**A.** Its value is 10.

**Q.** And the “Plant response rating, Barnyardgrass” value [7, 17]?
**A.** The value was 85.

**Q.** What about the “Plant response rating, Barnyardgrass” value [7, 18] of the same compound?
**A.** The value was 85.

**Q.** And the “Barnyardgrass plant response rating” value [7, 19]?
**A.** Its value is 85.

**Q.** And the “Barnyardgrass plant response rating” value [7, 20]?
**A.** The value was 60.

**Q.** What about the “Soybean plant response rating” value (soybean (Glycine max); [13]) of the same compound?
**A.** The value was 5.

**Q.** And the “Plant response rating, Soybean” value (soybean (Glycine max); [14])?
**A.** The value was 10.

**Q.** And the “Plant response rating, Soybean” value (soybean (Glycine max); [15])?
**A.** Its value is 15.

**Q.** What about the “Plant response rating, Soybean” value (soybean (Glycine max); [17]) of the same compound?
**A.** Its value is 0.

**Q.** And the “Plant response rating, Soybean” value (soybean (Glycine max); [18])?
**A.** Its value is 5.

**Q.** What about the “Soybean plant response rating” value (soybean (Glycine max); [19]) of the same compound?
**A.** Its value is 55.

**Q.** And the “Soybean plant response rating” value (soybean (Glycine max); [20])?
**A.** The value was 10.

**Q.** What about the “Ragweed plant response rating” value [8, 13] of the same compound?
**A.** The value was 85.

**Q.** And the “Plant response rating, Ragweed” value [8, 14]?
**A.** Its value is 95.

**Q.** What about the “Plant response rating, Ragweed” value [8, 15] of the same compound?
**A.** The value was 98.

**Q.** What about the “Plant response rating, Ragweed” value [8, 16] of the same compound?
**A.** The value was 85.

**Q.** And the “Plant response rating, Ragweed” value [8, 17]?
**A.** The value was 85.

**Q.** What about the “Plant response rating, Ragweed” value [8, 18] of the same compound?
**A.** The value was 95.

**Q.** What about the “Ragweed plant response rating” value [8, 19] of the same compound?
**A.** Its value is 90.

**Q.** And the “Ragweed plant response rating” value [8, 20]?
**A.** Its value is 90.

**Q.** And the “Chickweed plant response rating” value [9, 13]?
**A.** Its value is 100.

**Q.** What about the “Plant response rating, Chickweed” value [9, 14] of the same compound?
**A.** The value was 100.

**Q.** And the “Plant response rating, Chickweed” value [9, 15]?
**A.** The value was 100.

**Q.** What about the “Chickweed plant response rating” value [9, 20] of the same compound?
**A.** Its value is 100.

**Q.** What about the “Kochia plant response rating” value (kochia (Kochia scoparia); [13]) of the same compound?
**A.** Its value is 95.

**Q.** And the “Plant response rating, Kochia” value (kochia (Kochia scoparia); [14])?
**A.** The value was 100.

**Q.** What about the “Plant response rating, Kochia” value (kochia (Kochia scoparia); [15]) of the same compound?
**A.** Its value is 100.

**Q.** What about the “Kochia plant response rating” value (kochia (Kochia scoparia); [20]) of the same compound?
**A.** Its value is 95.

**Q.** And the “Oat, Wild plant response rating” value [10, 13]?
**A.** Its value is 85.

**Q.** What about the “Plant response rating, Oat, Wild” value [10, 14] of the same compound?
**A.** Its value is 100.

**Q.** And the “Plant response rating, Oat, Wild” value [10, 15]?
**A.** The value was 100.

**Q.** And the “Oat, Wild plant response rating” value [10, 20]?
**A.** The value was 95.

**Q.** What about the “Plant response rating, Galium” value [11, 21] of the same compound?
**A.** Its value is 100.

**Q.** And the “Galium plant response rating” value [11, 22]?
**A.** The value was 100.

**Q.** And the “Plant response rating, Blackgrass” value [12, 21]?
**A.** The value was 70.

**Q.** And the “Blackgrass plant response rating” value [12, 22]?
**A.** Its value is 80.
